Test results published in ChEMBL document CHEMBL1201862, “PubChem BioAssay data set” (2004).
Calls of active or inactive are those of the source.

Tests used:
[1] = target: T1, Zinc finger protein mex-5 (Caenorhabditis elegans, UniProt Q9XUB2); test: MEX-5/TCR-2 RNA interaction inhibitors, dose response, biochemical, C. elegans, fluorescence polarization (AID 1960)
T1 sequence (Q9XUB2 whole entry): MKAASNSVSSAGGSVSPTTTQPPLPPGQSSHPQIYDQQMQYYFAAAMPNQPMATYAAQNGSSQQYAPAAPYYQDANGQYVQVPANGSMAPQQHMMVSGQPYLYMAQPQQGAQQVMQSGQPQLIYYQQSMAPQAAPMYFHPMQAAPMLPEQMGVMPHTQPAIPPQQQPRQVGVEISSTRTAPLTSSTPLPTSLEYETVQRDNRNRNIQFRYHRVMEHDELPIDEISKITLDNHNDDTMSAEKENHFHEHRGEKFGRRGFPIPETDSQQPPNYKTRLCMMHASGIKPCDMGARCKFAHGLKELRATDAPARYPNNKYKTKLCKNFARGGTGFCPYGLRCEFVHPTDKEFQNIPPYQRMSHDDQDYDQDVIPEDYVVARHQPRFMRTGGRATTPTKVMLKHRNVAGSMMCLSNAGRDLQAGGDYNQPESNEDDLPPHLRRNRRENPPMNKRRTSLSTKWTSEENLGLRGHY

[2] = target: T2, RNA-binding protein pos-1 (Caenorhabditis elegans, UniProt G5EF15); test: inhibitors of POS-1/mex-3 RNA binding, dose response, biochemical, fluorescence polarization (AID 1964);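 also: purified POS-1 fused to maltose binding protein made in E. coli; potency of compounds blocking POS-1 binding to fluorescent RNA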
T2 sequence (G5EF15 whole entry): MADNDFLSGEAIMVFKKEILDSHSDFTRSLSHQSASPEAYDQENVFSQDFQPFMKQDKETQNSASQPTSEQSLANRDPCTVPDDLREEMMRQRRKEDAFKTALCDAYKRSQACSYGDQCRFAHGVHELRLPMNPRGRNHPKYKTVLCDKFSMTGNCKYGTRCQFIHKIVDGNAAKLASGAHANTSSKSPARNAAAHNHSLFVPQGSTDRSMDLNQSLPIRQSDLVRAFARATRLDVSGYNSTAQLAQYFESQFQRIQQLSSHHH

Transthyretin = Transthyretin (Homo sapiens, UniProt P02766); test: Luminescence-based cell-based high throughput dose response assay to identify activators of Transthyretin (TTR) transcription.; format: functional
Estrogen receptor beta [3] = target: T3, Estrogen receptor beta (Homo sapiens, UniProt Q92731);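 also: recombinant ER-beta bound to coactivator SRC1 peptide in presence of estradiol agonist; inhibitors block coactivator peptide binding and lower the FRET signal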
T3 sequence (Q92731 whole entry): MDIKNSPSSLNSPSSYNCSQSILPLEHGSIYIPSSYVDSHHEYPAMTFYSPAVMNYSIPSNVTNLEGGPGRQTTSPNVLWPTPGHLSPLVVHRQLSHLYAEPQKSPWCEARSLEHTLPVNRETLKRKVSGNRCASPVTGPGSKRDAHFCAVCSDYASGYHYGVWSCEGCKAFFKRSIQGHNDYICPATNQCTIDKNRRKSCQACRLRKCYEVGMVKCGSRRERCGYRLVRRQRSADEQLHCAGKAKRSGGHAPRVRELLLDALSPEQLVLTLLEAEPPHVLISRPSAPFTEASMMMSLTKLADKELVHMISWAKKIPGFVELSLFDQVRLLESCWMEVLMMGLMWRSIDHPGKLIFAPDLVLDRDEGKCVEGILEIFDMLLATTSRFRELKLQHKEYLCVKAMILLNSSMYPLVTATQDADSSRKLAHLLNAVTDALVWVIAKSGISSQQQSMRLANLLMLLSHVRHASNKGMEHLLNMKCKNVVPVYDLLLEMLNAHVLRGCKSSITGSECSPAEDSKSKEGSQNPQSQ

Estrogen receptor beta [4] = target: T3, Estrogen receptor beta; test: ERβ–SRC-3 coactivator interaction inhibitors, confirmation, orthogonal assay, biochemical, ELISA, streptavidin-HRP readout (AID 1060)
Protein skinhead-1 = target: T4, Protein skinhead-1 (Caenorhabditis elegans, UniProt P34707); format: functional
T4 sequence (P34707 whole entry): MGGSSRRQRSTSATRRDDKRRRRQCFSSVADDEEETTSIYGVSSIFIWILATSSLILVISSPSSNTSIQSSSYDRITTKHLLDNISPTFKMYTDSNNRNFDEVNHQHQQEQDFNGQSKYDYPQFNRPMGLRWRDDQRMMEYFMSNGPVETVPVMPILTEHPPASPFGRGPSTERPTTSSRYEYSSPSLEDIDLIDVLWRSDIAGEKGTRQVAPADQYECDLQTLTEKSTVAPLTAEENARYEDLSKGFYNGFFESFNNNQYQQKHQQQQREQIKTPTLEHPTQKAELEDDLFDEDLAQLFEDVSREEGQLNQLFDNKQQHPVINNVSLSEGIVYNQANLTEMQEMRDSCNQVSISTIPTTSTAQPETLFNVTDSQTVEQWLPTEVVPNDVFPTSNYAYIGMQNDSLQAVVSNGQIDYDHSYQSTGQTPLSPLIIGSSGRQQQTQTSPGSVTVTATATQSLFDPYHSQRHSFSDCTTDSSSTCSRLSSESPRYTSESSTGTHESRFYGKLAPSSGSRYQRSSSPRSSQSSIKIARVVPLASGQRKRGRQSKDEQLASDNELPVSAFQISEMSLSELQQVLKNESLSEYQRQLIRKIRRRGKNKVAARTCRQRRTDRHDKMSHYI

[5] = cytotoxicity toward NIH3T3 fibroblasts, dose response, counter-screen, cell-based, ATP luminescence, mouse fibroblasts (AID 2010); format: functional;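 also: cells exposed to compound for about 90 hours before reading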
[6] = inhibitors of intracellular T. cruzi replication, confirmation, NIH3T3 host cells, beta-gal luminescence (AID 2044); format: functional, cell-based;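 also: intracellular parasites grown in NIH/3T3 mouse fibroblasts as host cells; luminescent beta-galactosidase reporter signal from transgenic T. cruzi replicating inside host cells; inhibitors lower the luminescence signal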
Ephrin type-A receptor 4 = Ephrin type-A receptor 4 (Mus musculus, UniProt Q03137); test: inhibitors of EphA4 binding to KYL peptide, primary screen, biochemical, colorimetric, mouse EphA4 (AID 689); format: functional
Chain of Ephrin type-A receptor 4 (Q03137 whole entry): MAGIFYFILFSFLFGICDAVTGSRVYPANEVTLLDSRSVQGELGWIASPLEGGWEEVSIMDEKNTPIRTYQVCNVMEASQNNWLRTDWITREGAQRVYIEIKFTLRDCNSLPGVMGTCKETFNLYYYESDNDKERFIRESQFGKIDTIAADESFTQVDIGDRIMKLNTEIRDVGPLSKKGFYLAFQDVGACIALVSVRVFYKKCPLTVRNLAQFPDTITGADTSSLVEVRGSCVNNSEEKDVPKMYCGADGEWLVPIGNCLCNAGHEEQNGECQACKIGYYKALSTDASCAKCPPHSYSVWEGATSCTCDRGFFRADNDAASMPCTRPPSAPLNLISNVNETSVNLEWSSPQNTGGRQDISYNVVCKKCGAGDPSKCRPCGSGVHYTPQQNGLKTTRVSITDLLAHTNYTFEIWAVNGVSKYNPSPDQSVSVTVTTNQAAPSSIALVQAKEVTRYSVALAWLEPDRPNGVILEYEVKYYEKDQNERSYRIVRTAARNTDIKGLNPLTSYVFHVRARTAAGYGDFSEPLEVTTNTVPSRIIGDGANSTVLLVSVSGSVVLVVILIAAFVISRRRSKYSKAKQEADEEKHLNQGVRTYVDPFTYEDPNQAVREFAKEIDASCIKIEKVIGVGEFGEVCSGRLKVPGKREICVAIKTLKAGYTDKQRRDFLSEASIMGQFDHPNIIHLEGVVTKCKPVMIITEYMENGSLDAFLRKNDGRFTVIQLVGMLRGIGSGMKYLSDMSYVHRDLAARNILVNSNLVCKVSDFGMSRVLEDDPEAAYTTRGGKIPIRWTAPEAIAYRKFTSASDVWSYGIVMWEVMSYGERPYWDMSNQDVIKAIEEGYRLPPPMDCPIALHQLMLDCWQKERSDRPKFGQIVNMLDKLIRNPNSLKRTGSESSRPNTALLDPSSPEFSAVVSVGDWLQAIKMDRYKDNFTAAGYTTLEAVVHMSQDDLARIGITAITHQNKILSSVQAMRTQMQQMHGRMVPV

[7] = target: T5, Ubiquitin-conjugating enzyme E2 N (Homo sapiens, UniProt P61088); format: functional;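 also: Dose-response confirmation in a TR-FRET assay detecting UBC13-driven polyubiquitin chain formation, inhibition measured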
T5 sequence (P61088 whole entry): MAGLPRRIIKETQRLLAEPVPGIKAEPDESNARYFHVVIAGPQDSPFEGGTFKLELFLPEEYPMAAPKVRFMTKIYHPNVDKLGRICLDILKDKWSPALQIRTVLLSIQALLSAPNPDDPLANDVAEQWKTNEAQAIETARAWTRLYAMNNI

[8] = target: T6, Short transient receptor potential channel 4 (Mus musculus, UniProt Q9QUQ5); test: mouse TRPC4 channel activators, dose response, cell-based, HEK293 TRPC4/mu-opioid, Fluo-4 calcium (AID 434937); format: functional
T6 sequence (Q9QUQ5 whole entry): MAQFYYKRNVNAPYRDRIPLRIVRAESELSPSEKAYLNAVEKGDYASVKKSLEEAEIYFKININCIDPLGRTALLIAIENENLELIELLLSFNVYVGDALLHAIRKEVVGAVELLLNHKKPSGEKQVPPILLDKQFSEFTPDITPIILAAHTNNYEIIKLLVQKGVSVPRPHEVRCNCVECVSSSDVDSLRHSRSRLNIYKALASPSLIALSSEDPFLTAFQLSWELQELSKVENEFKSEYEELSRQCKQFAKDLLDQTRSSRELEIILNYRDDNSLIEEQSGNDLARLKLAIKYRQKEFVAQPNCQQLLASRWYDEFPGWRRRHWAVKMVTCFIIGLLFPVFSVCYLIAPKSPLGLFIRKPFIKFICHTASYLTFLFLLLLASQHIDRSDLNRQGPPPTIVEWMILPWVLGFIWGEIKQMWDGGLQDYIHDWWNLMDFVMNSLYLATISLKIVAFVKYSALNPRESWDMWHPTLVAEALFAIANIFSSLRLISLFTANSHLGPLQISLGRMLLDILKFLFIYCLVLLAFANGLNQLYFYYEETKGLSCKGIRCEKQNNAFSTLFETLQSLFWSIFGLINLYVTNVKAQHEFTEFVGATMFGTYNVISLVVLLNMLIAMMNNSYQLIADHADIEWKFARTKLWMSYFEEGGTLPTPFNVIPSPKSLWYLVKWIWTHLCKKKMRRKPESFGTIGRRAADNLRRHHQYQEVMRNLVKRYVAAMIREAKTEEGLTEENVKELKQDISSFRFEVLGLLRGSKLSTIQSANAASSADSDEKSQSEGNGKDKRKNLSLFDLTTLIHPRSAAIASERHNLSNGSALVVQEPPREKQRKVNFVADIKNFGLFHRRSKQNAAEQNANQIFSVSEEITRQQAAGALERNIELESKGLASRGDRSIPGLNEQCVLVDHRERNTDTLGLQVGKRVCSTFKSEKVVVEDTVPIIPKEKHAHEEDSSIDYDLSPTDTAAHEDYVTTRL

[9] = target: E3 ubiquitin-protein ligase Mdm2 (Homo sapiens, UniProt Q00987); test: enhancers of MDM2-luciferase reporter signal, concentration-effect titration, project on inhibitors of MDM2 ubiquitin ligase, cellular assay, luminescent readout, 384-well plate format (AID 1394); format: functional;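 also: MDM2 E3 inhibitors raise luminescence so EC50 is for signal enhancement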
Chain of E3 ubiquitin-protein ligase Mdm2 (Q00987 whole entry): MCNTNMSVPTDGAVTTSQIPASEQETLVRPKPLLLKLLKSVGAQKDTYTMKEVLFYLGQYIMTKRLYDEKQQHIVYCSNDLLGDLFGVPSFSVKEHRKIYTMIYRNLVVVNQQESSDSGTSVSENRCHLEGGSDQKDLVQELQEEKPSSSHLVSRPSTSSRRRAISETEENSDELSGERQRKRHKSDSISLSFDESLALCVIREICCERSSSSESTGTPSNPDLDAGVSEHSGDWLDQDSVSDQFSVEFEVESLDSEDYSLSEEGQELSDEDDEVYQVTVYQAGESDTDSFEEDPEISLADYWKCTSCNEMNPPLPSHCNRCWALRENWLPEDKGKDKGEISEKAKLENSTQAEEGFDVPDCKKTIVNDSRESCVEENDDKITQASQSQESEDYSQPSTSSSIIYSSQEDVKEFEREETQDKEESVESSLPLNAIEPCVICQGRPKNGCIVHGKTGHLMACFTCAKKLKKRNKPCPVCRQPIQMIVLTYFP

For `CCCCN1C(=O)NC(=O)/C(=C(O)\C=C\c2ccc3c(c2)OCO3)C1=O`, the EC50 [1] was 9.12 µM (inconclusive), the EC50 [2] was 11.5 µM (active) and the EC50 (Transthyretin) was > 167 µM (inactive).

With `COc1ccc(C2CC(=O)Nc3ccccc3S2(=O)=O)cc1OC` (stereo not given) the IC50 (Estrogen receptor beta [3]) was 16.1 µM (active) and the IC50 (Estrogen receptor beta [4]) was < 0.023 µM (not active).

In the case of `Nc1c(C(=O)Nc2ccc(F)cc2)sc2nc(-c3ccco3)ccc12`, the IC50 (Protein skinhead-1) is reported as > 100 µM (inactive), the IC50 (Estrogen receptor beta [3]) is reported as > 50 µM (not active) and the IC50 (Estrogen receptor beta [4]) is reported as > 50 µM (not active).

In the case of `Cc1nn(C(C)C)c(C)c1CN1CCCC(CCC(=O)NCc2ccccc2F)C1` (stereo not given), the EC50 [5] is reported as > 60 µM (not active), the EC50 (cells) is reported as < 0.004 µM (active) and the EC50 [6] is reported as < 0.1 µM (active).

In the case of `O=[N+]([O-])c1ccc(N2N=C(c3ccco3)CC2c2ccccc2)cc1` (stereo not given), the IC50 (Ephrin type-A receptor 4) is reported as > 100 µM (not active).

With `CC(C)n1cnc2c(N(C)c3ccccc3)nc(N(CCN(C)C)Cc3ccccc3)nc21` the IC50 [7] was > 20 µM (inactive), the EC50 [8] was 10.6 µM (active) and the EC50 [9] was 19.3 µM (not active).
